How the values were obtained:
[1] = tested on: bovine serum albumin (BSA); test: Nitration of bovine serum albumin by NO-DHLA, western blot with anti-nitrotyrosine antibodies (NO donation); assay type: biochemical; conditions: BSA 25 mg/ml incubated with NO-DHLA (6 to 15 μl) for 1 hr; untreated albumin had no detectable nitrotyrosine
Protocol: To determine the ability of the dinitroso-derivative of DHLA (6,8-bis[(oxidoazanylidyne)-λ^4-sulfanyl]octanoic acid or “NO-DHLA”) to donate nitric oxide (NO), bovine serum albumin (BSA) was first prepared in water at 25 mg/ml. In 100 μl of alcohol, increasing concentrations of BSA (15 to 30 μl) were then mixed with increasing concentrations of the NO-DHLA (0 to 15 μl) and incubated for 1 hr. Table 1 represents the incubation:
At the end of the incubation, samples were the separated by SDS-PAGE electrophoresis with along with markers of molecular weight. At the end of the electrophoresis, the blot was subsequently transferred on to a nitrocellulose membrane and western blotting was performed using anti-nitrotyrosine antibodies at a 1:1000 dilution (Oxford Biomedical Research, Rochester Hills, Mich.). Non-specific sites on the nitrocellulose were blocked with milk protein for 16 h at 4° C. and then overlaid with a polyclonal anti-nitrotyrosine rabbit antibody. Peroxidase conjugated anti-rabbit IgG was used as secondary antibody. […]

[2] = Storage stability of DHLA-NO solution (color / absorbance at OD 545 nm); assay type: physicochemical
Protocol: Furthermore, it was also observed that other reduced thiols (cysteine, glutathione), which were used as controls, generated similar S-nitroso thiol compounds. NO generated from the decomposition of other NO donors also generated nitroso-DHLA when incubated with DHLA. […] However, DHLA-NO stored at −80° C. retained its color up for up to 3 months without any loss of absorbance at OD 545 nm.

[3] = tested on: low-density lipoprotein (LDL); test: Inhibition of low-density lipoprotein oxidation, spectral analysis at O.D. 234; assay type: biochemical; conditions: 10, 25, and 50 μM NO-DHLA in ethyl alcohol
Protocol: To determine whether the dinitroso-derivative of dihydrolipoic acid (6,8-bis[(oxidoazanylidyne)-λ^4-sulfanyl]octanoic acid or “NO-DHLA”) was capable of inhibiting low-density lipoprotein (LDL) oxidation, LDLs were incubated in ethyl alcohol alone or with NO-DHLA. A spectral analysis of these solutions was then performed at an O.D. of 234, as absorbance at that portion of the spectrum is indicative of the formation of the oxidized fatty acid component of LDL.

O=NSCCC(CCCCC(=O)O)SN=O (centres unmarked) [NO-DHLA, 6,8-bis[(oxidoazanylidyne)-λ^4-sulfanyl]octanoic acid]
nitrotyrosine formation on BSA (reactivity with anti-nitrotyrosine antibody) [1]: intense reactivity with the antibody | stability of solution stored at room temperature ([2]; solution stored at room temperature, color): decomposed, losing color within hours | stability without any loss of absorbance at OD 545 nm ([2]; stored at −20° C.): stable at −20 °C for at least one month | time color retained without any loss of absorbance at OD 545 nm ([2]; stored at −80° C.): up to 3 months | oxidation of LDL (O.D. at 234 over time) [3]: effectively prevented or significantly reduced the oxidation of LDL
